Measurements: patent publication US10124085B2, “Antimicrobial and antiviral hygienic products” (priority 2014, dated 2018)

What was measured:
Escherichia coli = assay: Modified disc diffusion method; type: cell-based; design: key: +sign indicates that the boron compounds had antimicrobial activity.; −sign indicates that there is no antimicrobial activity; settings: disc immersed in pulverized boron compound; Ofloxacin 10 μg/disc; 36±1° C., 24 hours
Staphylococcus aureus = assay: Modified disc diffusion method; type: cell-based; design: key: +sign indicates that the boron compounds had antimicrobial activity.; −sign indicates that there is no antimicrobial activity; settings: disc immersed in pulverized boron compound; Ofloxacin 10 μg/disc; 36±1° C., 24 hours
Pseudomonas aeruginosa = assay: Modified disc diffusion method; type: cell-based; design: key: +sign indicates that the boron compounds had antimicrobial activity.; −sign indicates that there is no antimicrobial activity; settings: disc immersed in pulverized boron compound; Ofloxacin 10 μg/disc; 36±1° C., 24 hours
Candida albicans = assay: Modified disc diffusion method; type: cell-based; design: key: +sign indicates that the boron compounds had antimicrobial activity.; −sign indicates that there is no antimicrobial activity; settings: disc immersed in pulverized boron compound; Nystatin 30 μg/disc; 36±1° C., 48 hours
Candida glabrata = assay: Modified disc diffusion method; type: cell-based; design: key: +sign indicates that the boron compounds had antimicrobial activity.; −sign indicates that there is no antimicrobial activity; settings: disc immersed in pulverized boron compound; Nystatin 30 μg/disc; 36±1° C., 48 hours
Aspergillus niger = assay: Modified disc diffusion method; type: cell-based; design: key: +sign indicates that the boron compounds had antimicrobial activity.; −sign indicates that there is no antimicrobial activity; settings: disc immersed in pulverized boron compound; Nystatin 30 μg/disc; 25±1° C., 72 hours
Fusarium oxysporum = assay: Modified disc diffusion method; type: cell-based; design: key: +sign indicates that the boron compounds had antimicrobial activity.; −sign indicates that there is no antimicrobial activity; settings: disc immersed in pulverized boron compound; Nystatin 30 μg/disc; 25±1° C., 72 hours
Botrytis cinerea [1] = assay: Modified disc diffusion method; type: cell-based; design: key: +sign indicates that the boron compounds had antimicrobial activity.; −sign indicates that there is no antimicrobial activity; settings: disc immersed in pulverized boron compound; Nystatin 30 μg/disc; 25±1° C., 72 hours
Penicillium vinaceum = assay: Modified disc diffusion method; type: cell-based; design: key: +sign indicates that the boron compounds had antimicrobial activity.; −sign indicates that there is no antimicrobial activity; settings: disc immersed in pulverized boron compound; Nystatin 30 μg/disc; 25±1° C., 72 hours
Penicillium expansum = assay: Modified disc diffusion method; type: cell-based; design: key: +sign indicates that the boron compounds had antimicrobial activity.; −sign indicates that there is no antimicrobial activity; settings: disc immersed in pulverized boron compound; Nystatin 30 μg/disc; 25±1° C., 72 hours
[2] = tested on: all of the tested microorganisms; type: cell-based
Penicillium expansium = settings: cited from earlier work
Botrytis cinerea [3] = settings: 1% concentration; cited from earlier work
[4] = tested on: Human adenovirus type 5 Adenoid 75 strain; assay: Antiviral activity test in HEp-2 cell culture (TCID50, Spearman-Karber); type: cell-based; settings: for Reduction ratio in virus titration / Virus titration with Chlorhexidine gluconate: 0.1%, 20° C.; for Virus titration with Chlorhexidine gluconate: reference virus 5.5
[5] = tested on: Poliovirus type 1 Chat strain; type: cell-based
[6] = tested on: Human Herpes simplex virus type 1 (HSV-1) MacIntyre strain; assay: Antiviral activity test in Vero cell culture (TCID50, Spearman-Karber); type: cell-based; settings: for Reduction ratio in virus titration / Virus titration with Chlorhexidine gluconate: 0.1%, 20° C.; for Virus titration with Chlorhexidine gluconate: reference virus 7.3
[7] = tested on: HEp-2 cells (ATCC CCL-23)
Herpesvirus hominis = settings: 0.02% chlorhexidine gluconate; 90-minute exposure at room temperature; cited from earlier work
poliovirus = settings: 0.02% chlorhexidine gluconate; 90-minute exposure at room temperature; cited from earlier work
adenovirus = settings: 0.02% chlorhexidine gluconate; 90-minute exposure at room temperature; cited from earlier work
[8] = tested on: various bacterial strains; settings: 10-minute exposure; 0.02% chlorhexidine solution; cited from earlier work
enteric bacteria = settings: cited from earlier work
streptococci = settings: cited from earlier work
micrococci = settings: cited from earlier work
Propionibacterium acnes = settings: cited from earlier work
[9] = room temperature (20° C.), clean and polluted media, 1 and 60 minute application periods
[10] = used directly without being diluted, room temperature (20° C.), 1 and 60 minute application periods

O.O.O.O.O.[Na+].[Na+].[O-]B1OB2OB([O-])OB(O1)O2 [BP, Borax pentahydrate]
Antimicrobial activity (inhibition zone) (Escherichia coli): +
Antimicrobial activity (inhibition zone) (Staphylococcus aureus): +
Antimicrobial activity (inhibition zone) (Pseudomonas aeruginosa): +
Antimicrobial activity (inhibition zone) (Candida albicans): +
Antimicrobial activity (inhibition zone) (Candida glabrata): +
Antimicrobial activity (inhibition zone) (Aspergillus niger): +
Antimicrobial activity (inhibition zone) (Fusarium oxysporum): +
Antimicrobial activity (inhibition zone) (Botrytis cinerea [1]): +
Antimicrobial activity (inhibition zone) (Penicillium vinaceum): +
Antimicrobial activity (inhibition zone) (Penicillium expansum): +
concentration giving the most effective antimicrobial (antifungal, anticandidal and antibacterial) results [2]: 5.5 mg/cm^2

[K+].[K+].[O-]B1OB2OB([O-])OB(O1)O2 [potassium tetraborate]
minimum concentration preventing micelle growth (Penicillium expansium): 0.1%
control of mold causing disease on the grapes (Botrytis cinerea [3]): could control

N=C(NCCCCCCNC(=N)NC(=N)Nc1ccc(Cl)cc1)NC(=N)Nc1ccc(Cl)cc1.O=C(O)[C@H](O)[C@@H](O)[C@H](O)[C@H](O)CO.O=C(O)[C@H](O)[C@@H](O)[C@H](O)[C@H](O)CO [Chlorhexidine gluconate]
Reduction ratio in virus titration ([4]; 1 minute, Clean medium): 4.0 Logarithmic TCID50
Virus titration with Chlorhexidine gluconate ([4]; 1 minute, Clean medium): 1.5 Logarithmic TCID50
Reduction ratio in virus titration ([4]; 1 minute, Polluted medium): 4.0 Logarithmic TCID50
Virus titration with Chlorhexidine gluconate ([4]; 1 minute, Polluted medium): 1.5 Logarithmic TCID50
Reduction ratio in virus titration ([4]; 60 minutes, Clean medium): 4.5 Logarithmic TCID50
Virus titration with Chlorhexidine gluconate ([4]; 60 minutes, Clean medium): 1.0 Logarithmic TCID50
Reduction ratio in virus titration ([4]; 60 minutes, Polluted medium): 4.0 Logarithmic TCID50
Virus titration with Chlorhexidine gluconate ([4]; 60 minutes, Polluted medium): 1.5 Logarithmic TCID50
reduction in virus titration [4, 9]: at least 4 log
active against virus [4, 10]: 99.9%
reduction in virus titration [5]: at least 4 log
Reduction ratio in virus titration ([5]; 0.1%, 20° C.): 4.2 Logarithmic TCID50
Virus titration with Chlorhexidine gluconate ([5]; 0.1%, 20° C.): 1.3 Logarithmic TCID50
Reduction ratio in virus titration ([6]; 1 minute, Clean medium): 4 Logarithmic TCID50
Virus titration with Chlorhexidine gluconate ([6]; 1 minute, Clean medium): 2.3 Logarithmic TCID50
Reduction ratio in virus titration ([6]; 1 minute, Polluted medium): 4 Logarithmic TCID50
Virus titration with Chlorhexidine gluconate ([6]; 1 minute, Polluted medium): 2.3 Logarithmic TCID50
Reduction ratio in virus titration ([6]; 60 minutes, Clean medium): 4 Logarithmic TCID50
Virus titration with Chlorhexidine gluconate ([6]; 60 minutes, Clean medium): 2.3 Logarithmic TCID50
Reduction ratio in virus titration ([6]; 60 minutes, Polluted medium): 4 Logarithmic TCID50
Virus titration with Chlorhexidine gluconate ([6]; 60 minutes, Polluted medium): 2.3 Logarithmic TCID50
reduction in virus titration [6, 9]: at least 4 log
active against virus [6, 10]: 99.9%
cytopathic effect on the cells in the cell culture [7]: showed cytopathic effect
lowest ratio which does not show cytopathic effect [7]: 0.1%
reduction of virus titration (Herpesvirus hominis): more than 99%
activity against virus (poliovirus): ineffective
activity against virus (adenovirus): ineffective

Sodium Borate [SB]
Antimicrobial activity (inhibition zone) (Escherichia coli): +
Antimicrobial activity (inhibition zone) (Staphylococcus aureus): +
Antimicrobial activity (inhibition zone) (Pseudomonas aeruginosa): +
Antimicrobial activity (inhibition zone) (Candida albicans): +
Antimicrobial activity (inhibition zone) (Candida glabrata): +
Antimicrobial activity (inhibition zone) (Aspergillus niger): +
Antimicrobial activity (inhibition zone) (Fusarium oxysporum): +
Antimicrobial activity (inhibition zone) (Botrytis cinerea [1]): +
Antimicrobial activity (inhibition zone) (Penicillium vinaceum): +
Antimicrobial activity (inhibition zone) (Penicillium expansum): +
concentration giving the most effective antimicrobial (antifungal, anticandidal and antibacterial) results [2]: 4 mg/cm^2

O.O.O.O.[Na+].[O-]B1OO1 [SPT, Sodium perborate tetrahydrate]
Antimicrobial activity (inhibition zone) (Escherichia coli): +
Antimicrobial activity (inhibition zone) (Staphylococcus aureus): +
Antimicrobial activity (inhibition zone) (Pseudomonas aeruginosa): +
Antimicrobial activity (inhibition zone) (Candida albicans): +
Antimicrobial activity (inhibition zone) (Candida glabrata): +
Antimicrobial activity (inhibition zone) (Aspergillus niger): +
Antimicrobial activity (inhibition zone) (Fusarium oxysporum): +
Antimicrobial activity (inhibition zone) (Botrytis cinerea [1]): +
Antimicrobial activity (inhibition zone) (Penicillium vinaceum): +
Antimicrobial activity (inhibition zone) (Penicillium expansum): +
concentration giving the most effective antimicrobial (antifungal, anticandidal and antibacterial) results [2]: 5.5 mg/cm^2

C[C@@H]1[C@H](O)[C@@H](C)/C=C/C=C/CC/C=C/C=C/C=C/C=C/C(O[C@H]2O[C@H](C)[C@@H](O)[C@H](N)[C@@H]2O)CC2O[C@](O)(CC(O)C(O)CCC(O)CC(O)CC(O)CC(=O)O[C@H]1C)CC(O)C2C(=O)O (stereo partly drawn) [Nystatin]
Antimicrobial activity (inhibition zone) (Candida albicans): +
Antimicrobial activity (inhibition zone) (Candida glabrata): +
Antimicrobial activity (inhibition zone) (Aspergillus niger): +
Antimicrobial activity (inhibition zone) (Fusarium oxysporum): +
Antimicrobial activity (inhibition zone) (Botrytis cinerea [1]): +
Antimicrobial activity (inhibition zone) (Penicillium vinaceum): +
Antimicrobial activity (inhibition zone) (Penicillium expansum): +

[H]/N=C(\N/C(=N/[H])NCCCCCCNC(=N)NC(=N)Nc1ccc(Cl)cc1)Nc1ccc(Cl)cc1 [chlorhexidine]
inhibition of microorganisms [8]: 99.99%

OB(O)O [boric acid]
antibacterial activity (enteric bacteria): has antibacterial activity

Oc1cc(Cl)ccc1Oc1ccc(Cl)cc1Cl [triclosan]
effectiveness relative to hexachlorophene (streptococci): less effective
effectiveness relative to hexachlorophene (micrococci): less effective
effectiveness relative to hexachlorophene (Propionibacterium acnes): less effective

CC1COc2c(N3CCN(C)CC3)c(F)cc3c(=O)c(C(=O)O)cn1c23 (stereo not drawn) [Ofloxacin]
Antimicrobial activity (inhibition zone) (Escherichia coli): +
Antimicrobial activity (inhibition zone) (Staphylococcus aureus): +
Antimicrobial activity (inhibition zone) (Pseudomonas aeruginosa): +
